Test [1] deals with CLK. Conditions: ref SGC chemical probe website (thesgc.org/chemical-probes/MU1210, /T3-CLK); cited from earlier work.
Test [2] relates to pSR and CLK2 localization, U118-MG and MDA-MB-435 cells. Briefly: Immunofluorescence of pSR and CLK2 localization. It is filed as cell-based. Conditions: 500 nM, over the course of 60 min.
For test [3], the target named is T1, CLK1 (Homo sapiens, UniProt P49759). Briefly: NanoBRET in-cell target engagement. Type of test: cell-based. (Bioluminescence resonance energy transfer reports proximity on the nanometre scale.)
The subject of test [4] is 100 different cancer cell lines. The experiment in a line: ProQinase CL100 cancer cell line panel. It is filed as cell-based. As to conditions: of 100 cell lines tested, CellTiter-Glo. For orientation: In ATP-based viability assays light output follows the ATP content of the culture.
For test [5], the system named is SR phosphorylation (pSR), U118-MG cells. Briefly: Western blot of phosphorylated SR proteins. Type of test: cell-based.
Test [6] has as its system CLK2 or pSR distribution, BT-20. The experiment in a line: Immunofluorescence of pSR and CLK2 localization. Type of test: cell-based.
Test [7] concerns the target T2, HIPK1 (Homo sapiens, UniProt Q86Z02). The experiment in a line: NanoBRET in-cell target engagement. It is filed as cell-based.
The target of test [8] is T2, HIPK1. Briefly: Eurofins enzymatic assay. It is filed as biochemical.
The subject of test [9] is BT-20. Briefly: Crystal violet cell proliferation. Type of test: cell-based. Conditions: BT-20, denoted concentrations, 7 days (Fig. 6a).
The target in test [10] is T3, HIPK2 (Homo sapiens, UniProt Q9H2X6). The experiment in a line: Eurofins enzymatic assay. It is filed as biochemical.
Test [11] deals with T3, HIPK2. The experiment in a line: NanoBRET in-cell target engagement. Type of test: cell-based.
The target in test [12] is T4, STK16 (Homo sapiens, UniProt O75716). The experiment in a line: Eurofins enzymatic assay. It is filed as biochemical.
Test [13] deals with MDA-MB-435. The experiment in a line: Crystal violet cell proliferation. It is filed as cell-based. Conditions: MDA-MB-435, denoted concentrations, 7 days (Fig. 6a).
The target of test [14] is T4, STK16. The experiment in a line: NanoBRET in-cell target engagement. It is filed as cell-based.
Test [15] deals with ERK8 (MAPK15) (Homo sapiens, UniProt Q8TD08). The experiment in a line: KINOMEscan scanMAX binding.
Test [16] relates to U118-MG. The experiment in a line: Crystal violet cell proliferation. It is filed as cell-based. As to conditions: denoted concentrations, 7 days (Fig. 6a).
For test [17], the target named is T5, CLK2 (Homo sapiens, UniProt P49760). The experiment in a line: NanoBRET in-cell target engagement. Type of test: cell-based.
Test [18] deals with T1, CLK1. Briefly: Luceome KinaseSeeker binding. As to conditions: read-out: KinaseSeeker activity remaining.
Test [19] concerns the target T6, CLK4 (Homo sapiens, UniProt Q9HAZ1). The experiment in a line: NanoBRET in-cell target engagement. Type of test: cell-based.
Test [20] addresses T1, CLK1. The experiment in a line: Eurofins enzymatic assay. It is filed as biochemical.
For test [21], the target named is T5, CLK2. Briefly: Eurofins enzymatic assay. It is filed as biochemical.
The target of test [22] is CLK3 (Homo sapiens, UniProt P49761). Briefly: Eurofins enzymatic assay. It is filed as biochemical.
Test [23] relates to 403 wildtype (WT) human as well as several mutant and nonhuman kinases. It is filed as binding. Conditions: no kinase bound below this PoC.
For test [24], the target named is CLK4. Briefly: Luceome KinaseSeeker binding. As to conditions: CLK4, 1 μM.
Test [25] addresses T6, CLK4. The experiment in a line: Eurofins enzymatic assay. It is filed as biochemical.
The target in test [26] is T5, CLK2. The experiment in a line: Luceome KinaseSeeker binding. As to conditions: read-out: KinaseSeeker activity remaining.

T1 sequence (P49759 whole entry): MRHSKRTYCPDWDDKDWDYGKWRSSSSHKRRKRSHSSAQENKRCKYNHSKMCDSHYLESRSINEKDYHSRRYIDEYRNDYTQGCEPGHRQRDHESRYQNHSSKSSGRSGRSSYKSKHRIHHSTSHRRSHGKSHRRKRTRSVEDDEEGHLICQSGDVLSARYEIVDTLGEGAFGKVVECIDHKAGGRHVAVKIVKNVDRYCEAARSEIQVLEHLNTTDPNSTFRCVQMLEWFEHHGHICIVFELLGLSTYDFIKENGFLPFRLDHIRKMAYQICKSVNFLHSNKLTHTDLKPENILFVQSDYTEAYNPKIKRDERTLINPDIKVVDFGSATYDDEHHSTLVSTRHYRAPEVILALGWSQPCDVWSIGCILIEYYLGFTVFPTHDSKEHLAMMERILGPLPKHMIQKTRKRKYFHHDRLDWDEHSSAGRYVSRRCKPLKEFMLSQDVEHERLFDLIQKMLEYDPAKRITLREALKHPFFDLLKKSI
T5 sequence (P49760 whole entry): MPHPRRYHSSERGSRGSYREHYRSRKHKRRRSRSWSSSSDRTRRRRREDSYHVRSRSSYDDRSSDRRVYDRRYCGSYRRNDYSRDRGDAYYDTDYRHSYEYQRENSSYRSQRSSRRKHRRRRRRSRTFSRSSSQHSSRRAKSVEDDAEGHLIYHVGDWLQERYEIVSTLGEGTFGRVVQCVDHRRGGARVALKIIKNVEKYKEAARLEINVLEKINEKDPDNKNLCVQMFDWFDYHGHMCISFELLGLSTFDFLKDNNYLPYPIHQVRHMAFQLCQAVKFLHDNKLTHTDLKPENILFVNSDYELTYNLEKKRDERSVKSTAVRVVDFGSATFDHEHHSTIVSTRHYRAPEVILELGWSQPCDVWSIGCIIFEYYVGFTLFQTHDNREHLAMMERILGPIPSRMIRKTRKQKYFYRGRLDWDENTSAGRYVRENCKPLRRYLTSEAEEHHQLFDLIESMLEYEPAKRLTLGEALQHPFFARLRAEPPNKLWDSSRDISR
T6 sequence (Q9HAZ1 whole entry): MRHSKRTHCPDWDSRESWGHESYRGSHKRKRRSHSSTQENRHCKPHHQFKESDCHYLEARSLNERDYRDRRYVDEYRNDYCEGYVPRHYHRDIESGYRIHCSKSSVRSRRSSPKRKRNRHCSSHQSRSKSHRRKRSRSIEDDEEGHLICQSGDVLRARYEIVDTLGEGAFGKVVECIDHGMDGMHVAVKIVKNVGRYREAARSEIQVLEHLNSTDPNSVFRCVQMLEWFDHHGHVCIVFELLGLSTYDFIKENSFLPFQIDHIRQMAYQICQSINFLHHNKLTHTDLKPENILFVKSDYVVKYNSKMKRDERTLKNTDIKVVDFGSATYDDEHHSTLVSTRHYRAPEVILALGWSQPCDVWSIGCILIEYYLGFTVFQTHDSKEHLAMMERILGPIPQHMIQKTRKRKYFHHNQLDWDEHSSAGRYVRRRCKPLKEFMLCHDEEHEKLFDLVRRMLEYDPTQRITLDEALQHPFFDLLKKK
Chain of ERK8 (MAPK15) (Q8TD08 whole entry): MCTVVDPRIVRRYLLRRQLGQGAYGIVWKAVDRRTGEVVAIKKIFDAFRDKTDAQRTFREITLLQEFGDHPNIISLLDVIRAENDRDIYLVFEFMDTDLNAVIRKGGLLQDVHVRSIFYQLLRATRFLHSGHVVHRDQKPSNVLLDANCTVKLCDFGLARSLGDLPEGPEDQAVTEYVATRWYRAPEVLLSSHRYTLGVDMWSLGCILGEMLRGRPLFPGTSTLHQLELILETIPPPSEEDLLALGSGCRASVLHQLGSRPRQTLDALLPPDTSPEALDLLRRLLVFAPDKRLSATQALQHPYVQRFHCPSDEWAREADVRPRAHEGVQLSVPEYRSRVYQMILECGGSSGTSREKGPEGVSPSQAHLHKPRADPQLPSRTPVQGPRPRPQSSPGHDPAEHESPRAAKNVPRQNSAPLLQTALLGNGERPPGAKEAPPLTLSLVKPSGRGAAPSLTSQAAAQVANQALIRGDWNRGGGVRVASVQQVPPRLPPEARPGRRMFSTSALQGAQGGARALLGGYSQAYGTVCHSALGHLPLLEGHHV
T4 sequence (O75716 whole entry): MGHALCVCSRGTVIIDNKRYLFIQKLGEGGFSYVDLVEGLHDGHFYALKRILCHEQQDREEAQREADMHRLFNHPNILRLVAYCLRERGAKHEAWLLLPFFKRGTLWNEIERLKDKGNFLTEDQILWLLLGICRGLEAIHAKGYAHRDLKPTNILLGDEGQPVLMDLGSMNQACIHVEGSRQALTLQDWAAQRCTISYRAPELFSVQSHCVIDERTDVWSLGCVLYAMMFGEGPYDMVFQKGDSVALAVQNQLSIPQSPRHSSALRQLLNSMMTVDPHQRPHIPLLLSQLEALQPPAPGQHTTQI
T3 sequence (Q9H2X6 whole entry): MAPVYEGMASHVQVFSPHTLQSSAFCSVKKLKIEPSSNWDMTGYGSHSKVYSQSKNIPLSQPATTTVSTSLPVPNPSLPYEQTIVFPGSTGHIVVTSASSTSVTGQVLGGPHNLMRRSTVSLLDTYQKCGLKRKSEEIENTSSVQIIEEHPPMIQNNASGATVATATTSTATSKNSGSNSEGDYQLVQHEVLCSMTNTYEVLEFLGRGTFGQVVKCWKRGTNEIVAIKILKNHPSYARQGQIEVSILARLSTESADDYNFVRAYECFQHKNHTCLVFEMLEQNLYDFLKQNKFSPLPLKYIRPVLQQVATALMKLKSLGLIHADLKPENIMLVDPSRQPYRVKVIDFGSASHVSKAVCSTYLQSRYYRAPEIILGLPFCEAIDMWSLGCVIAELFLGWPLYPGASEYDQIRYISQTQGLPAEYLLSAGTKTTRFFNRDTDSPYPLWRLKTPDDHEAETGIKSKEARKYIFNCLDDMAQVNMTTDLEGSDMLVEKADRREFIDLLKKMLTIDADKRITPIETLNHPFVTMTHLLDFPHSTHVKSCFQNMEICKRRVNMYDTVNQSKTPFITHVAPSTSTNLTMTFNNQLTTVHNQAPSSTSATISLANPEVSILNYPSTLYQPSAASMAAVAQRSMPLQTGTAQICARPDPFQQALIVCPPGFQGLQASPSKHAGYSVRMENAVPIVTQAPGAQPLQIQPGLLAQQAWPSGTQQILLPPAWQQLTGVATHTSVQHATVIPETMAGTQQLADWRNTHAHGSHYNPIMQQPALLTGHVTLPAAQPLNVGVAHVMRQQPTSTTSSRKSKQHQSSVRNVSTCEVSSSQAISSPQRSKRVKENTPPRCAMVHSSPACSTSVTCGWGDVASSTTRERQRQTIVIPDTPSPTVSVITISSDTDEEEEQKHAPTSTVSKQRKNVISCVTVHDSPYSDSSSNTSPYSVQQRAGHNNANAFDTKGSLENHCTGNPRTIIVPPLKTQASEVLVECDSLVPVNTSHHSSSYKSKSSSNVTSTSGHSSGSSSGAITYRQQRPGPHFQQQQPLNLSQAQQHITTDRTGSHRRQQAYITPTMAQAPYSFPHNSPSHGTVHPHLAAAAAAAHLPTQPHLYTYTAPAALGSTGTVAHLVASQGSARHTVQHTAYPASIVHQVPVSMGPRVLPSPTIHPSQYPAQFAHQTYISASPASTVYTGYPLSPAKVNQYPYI
T2 sequence (Q86Z02 whole entry): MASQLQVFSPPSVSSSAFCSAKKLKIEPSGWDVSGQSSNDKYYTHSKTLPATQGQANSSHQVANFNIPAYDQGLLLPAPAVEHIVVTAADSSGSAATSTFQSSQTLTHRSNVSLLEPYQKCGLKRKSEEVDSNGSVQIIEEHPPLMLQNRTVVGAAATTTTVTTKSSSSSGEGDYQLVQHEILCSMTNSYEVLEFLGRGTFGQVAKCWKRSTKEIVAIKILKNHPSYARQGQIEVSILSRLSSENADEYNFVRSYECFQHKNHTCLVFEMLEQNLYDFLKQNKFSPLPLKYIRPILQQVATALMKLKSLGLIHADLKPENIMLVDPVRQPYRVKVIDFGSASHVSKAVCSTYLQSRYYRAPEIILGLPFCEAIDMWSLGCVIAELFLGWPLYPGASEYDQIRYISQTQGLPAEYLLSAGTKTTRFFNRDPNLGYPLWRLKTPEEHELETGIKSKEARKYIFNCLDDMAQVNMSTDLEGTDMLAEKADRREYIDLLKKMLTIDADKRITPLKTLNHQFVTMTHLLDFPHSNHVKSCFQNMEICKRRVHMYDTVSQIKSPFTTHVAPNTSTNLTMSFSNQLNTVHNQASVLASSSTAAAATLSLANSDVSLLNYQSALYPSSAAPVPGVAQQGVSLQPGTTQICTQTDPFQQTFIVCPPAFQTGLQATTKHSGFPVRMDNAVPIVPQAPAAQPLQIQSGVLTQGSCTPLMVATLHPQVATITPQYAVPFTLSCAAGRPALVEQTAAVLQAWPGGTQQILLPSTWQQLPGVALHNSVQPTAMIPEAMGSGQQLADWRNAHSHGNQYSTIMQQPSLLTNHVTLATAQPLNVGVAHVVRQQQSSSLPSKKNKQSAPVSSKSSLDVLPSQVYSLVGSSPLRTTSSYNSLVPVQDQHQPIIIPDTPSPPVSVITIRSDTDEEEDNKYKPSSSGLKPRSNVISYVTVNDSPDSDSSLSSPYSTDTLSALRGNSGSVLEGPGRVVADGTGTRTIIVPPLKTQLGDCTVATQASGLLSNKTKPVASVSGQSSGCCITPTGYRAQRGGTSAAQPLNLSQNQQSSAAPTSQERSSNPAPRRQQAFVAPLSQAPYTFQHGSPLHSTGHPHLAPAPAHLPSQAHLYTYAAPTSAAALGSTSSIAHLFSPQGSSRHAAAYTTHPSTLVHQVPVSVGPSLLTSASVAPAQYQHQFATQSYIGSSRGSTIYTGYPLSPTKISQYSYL

Turning to `Cn1cc(-c2ccc3occ(-c4cccc(-c5ccncc5)c4)c3n2)cn1` [Compound 1, reference compound], the “Activity in the CLK nanoBRET assays” value in [1] is on record as “active”. For the same compound, the “Effect on pSR and CLK2 localization” value in test [2] is “did not show any effect on pSR or CLK2 localization”.
`COc1cc(Nc2nccc(-c3cnn4nc(OC)ccc34)n2)cc(C(F)(F)F)c1` [SGC-CLK-1, N-(3-methoxy-5-(trifluoromethyl)phenyl)-4-(6-methoxypyrazolo[1,5-b]pyridazin-3-yl) pyrimidin-2-amine]: the half-maximal inhibitory concentration (IC50) is 0.154 ± 0.05 µM in [3] (Cellular IC50 (NanoBRET), CLK1, HEK293, Tracer K5); over 10 µM in test [7]; 0.05 µM in test [8]; 0.042 µM in [10]; over 10 µM in [11]; 0.049 µM in [12]. The “Cell lines with IC50 for inhibiting proliferation <250 nM” value in [4] is on record as 27/100. Moreover, the “Change in SR phosphorylation (pSR)” value is listed as “did not detect significant pSR changes” in test [5] (1 μM, highest treatment condition) and “decrease in SR phosphorylation” in test [5] (5 μM, 30 min post treatment, U118-MG). Besides, the “Effect on CLK2 or pSR distribution” value in test [6] was “did not observe a difference in CLK2 or pSR distribution”. In addition, the “Effect on cell growth (crystal violet)” value in test [9] is recorded as “no growth change”; in [13], “dose-dependent decrease in the growth”; in test [16], “dose-dependent decrease in the growth”. Also, the “Effect on pSR and CLK2 localization” value in test [2] is “significant changes in the cellular distribution of both pSRs and CLK2”. Further, the “NanoBRET binding (in words)” value in [14] is “only partial inhibition”. Further, the “% Control (1 μM)” value in test [15] (ERK8 (MAPK15), 1 μM) worked out at 21%. Moreover, the remaining binding at 1 µM in test [15] (read-out: % Control (1 μM), ERK8 (MAPK15), 1 μM) was under 35%.
`CCOc1ccc2c(-c3cc(C)nc(Nc4cc(OC)cc(C(F)(F)F)c4)n3)cnn2n1` [SGC-CLK-1N, 4-(6-ethoxypyrazolo [1,5-b]pyridazin-3-yl)-N-(3-methoxy-5-(trifluoromethyl)phenyl)-6-methylpyrimidin-2-amine]: the “NanoBRET activity (in words)” value in test [3] (CLK1), in test [17] and in test [19] was “inactive” throughout. In addition, the remaining activity at 1 µM in [18] and in [26] was 100% in each case. Moreover, the “Effect on CLK2 or pSR distribution” value in [6] was “did not observe a difference in CLK2 or pSR distribution”. For the same compound, the “Enzymatic inhibition (in words)” value in test [20], in test [21], in [22] and in [25] was “no inhibition” each time. In addition, in test [23], the “PoC of any kinase in the KINOMEscan panel” value is reported as at least 45. Moreover, in [24], the KinaseSeeker activity remaining is recorded as 100%. The “Effect on cell growth (crystal violet)” value in test [13] and in test [16] was “little effect” in each case.

What is called IC50 is the concentration at which inhibition is half-maximal. High values mean weaker potency in that assay, low ones greater potency in that assay. One may read the remaining activity as the share of the control activity or signal that is left under treatment.
